According to US12545672B2, “Antibiotic compounds, methods of manufacturing the same, pharmaceutical compositions containing the same and uses thereof” (Debiopharm International S.A., priority 2018, dated 2026):
Where two headings read alike, the source gives them in different places.

Experiments:
Neisseria gonorrhoeae = assay: MIC50 by CLSI agar dilution on a panel of N. gonorrhoeae clinical isolates; format: cell-based; settings: agar dilution, GC agar base, minimum of 15 clinical isolates
Method: MIC50: MICs were determined in accordance with the appropriate Clinical and Laboratory Standards Institute (CLSI) methodology by the agar dilution susceptbility testing method in GC agar base.

Caco-2 = Caco-2 permeability assay; format: in vitro ADME; settings: 120 min incubation
Method: (§1) Caco-2 assay: Compounds were incubated in a Caco-2 24-transwell system (Solvo Biotechnologies, Hungary) for 120 min, after which samples were taken from the donor and acceptor compartments of the transwell system. The integrity of each cell monolayer was controlled by measuring transepithelial electrical resistance (TEER) before the experiment. Lucifer yellow permeability (B to A) was also tested as a control on the same plate (all wells) after the actual experiment. The samples were analyzed using UPLC/MS/MS. The permeation of the compounds was monitored using relative LC/MS/MS peak areas (initial donor solution sample=100%).

[1] = Prediction of hepatic extraction ratio from liver microsome stability; format: in vitro ADME; settings: human liver microsomes, Well-Stirred model
[2] = Mouse cassette PK and oral bioavailability determination; format: in vivo, Female BALB/c mice; settings: iv 1 mg/kg, po 2 mg/kg, cassette dosing; for bioavailability: female, BALB/c, mouse, plasma, read-out: Mouse F (%)
Method: Dose volumes were 5 ml/kg and 10 ml/kg for IV and oral administration, respectively. Compounds were co-formulated in a 10% DMSO (v/v) and 40% Captisol (w/v) in saline solution formulation (up to 3 compounds in a cassette). […] Tmax, Cmax, AUC, clearance, volume of distribution and oral bioavailability were estimated from the plasma concentrations using non-compartmental pharmacokinetic models. In particular, oral bioavailability (F %) was defined as F=(Doseiv*AUCpo)/(Dosepo*AUCiv)*100

[3] = biological target: Neisseria gonorrhoeae FabI (Neisseria gonorrhoeae, UniProt A0ACH0F547); assay: Neisseria gonorrhoeae FabI inhibition assay (NADH consumption)
[4] = Caco-2 permeability assay; format: in vitro ADME; settings: human, Caco-2; A2B, 120 min incubation
Method: as §1

[5] = biological target: Chlamydia trachomatis FabI (Chlamydia trachomatis serovar D (strain ATCC VR-885 / DSM 19411 / UW-3/Cx), UniProt O84106); assay: Chlamydia trachomatis FabI inhibition assay (NADH consumption); settings: read-out: CT FABI IC50; recombinant C. trachomatis FabI, 30° C., pH 7.0
[6] = Neisseria gonorrhoeae, read-out: MIC50

Sequence of Neisseria gonorrhoeae FabI (A0ACH0F547 1-261): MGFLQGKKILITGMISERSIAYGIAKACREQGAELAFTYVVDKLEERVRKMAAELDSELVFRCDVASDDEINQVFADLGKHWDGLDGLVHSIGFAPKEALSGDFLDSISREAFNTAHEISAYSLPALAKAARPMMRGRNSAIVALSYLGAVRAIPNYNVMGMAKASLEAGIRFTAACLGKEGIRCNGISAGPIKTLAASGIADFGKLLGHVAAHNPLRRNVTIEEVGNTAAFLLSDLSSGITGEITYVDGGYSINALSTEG
Sequence of Chlamydia trachomatis FabI (O84106 1-298): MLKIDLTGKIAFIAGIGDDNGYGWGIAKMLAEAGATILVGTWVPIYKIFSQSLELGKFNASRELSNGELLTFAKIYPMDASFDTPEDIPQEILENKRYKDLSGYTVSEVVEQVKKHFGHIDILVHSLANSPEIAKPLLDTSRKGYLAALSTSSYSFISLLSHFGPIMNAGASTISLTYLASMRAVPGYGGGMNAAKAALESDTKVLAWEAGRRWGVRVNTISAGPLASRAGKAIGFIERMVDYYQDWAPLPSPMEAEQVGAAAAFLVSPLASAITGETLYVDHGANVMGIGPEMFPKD

SMILES	Predict Human hep ER [1]	MIC50 (Neisseria gonorrhoeae; [6]) [µg/mL]	Papp A→B at 120 min [4] [×10⁻⁶ cm/s]	bioavailability [2] [%]	IC50 [3] [nM]	MIC50 (Neisseria gonorrhoeae) [µg/mL]	Caco-2 Papp A2B (Caco-2)	Mouse F (%) [2] [%]	IC50 ([3]; read-out: ngFabI IC50, recombinant N. gonorrhoeae FabI, 30° C., pH 7.2) [nM]	IC50 [5] [nM]
O=C1CCNc2cc(/C=C/C(=O)N3C[C@H]4CC(c5ccc(Oc6ccncc6)cc5)=C[C@H]4C3)cnc2N1 (racemic) [Compound 90, 8-((E)-3-Oxo-3-((3rS,6rR)-5-(4-(pyridin-4-yloxy)phenyl)-3,3r,4,6r-tetrahydrocyclopenta[c]pyrrol-2(1H)-yl)prop-1-en-1-yl)-1,2,3,5-tetrahydro-4H-pyrido[2,3-b][1,4]diazepin-4-one]	0.03	–	–	–	–	<1	10.7 10−6 cm/s	7	< 10	–
COc1cc(Oc2ccc(C3=C[C@H]4CN(C(=O)/C=C/c5cnc6c(c5)NCCC(=O)N6)C[C@H]4C3)cc2)ccc1C#N [Compound 140, 2-methoxy-4-(4-((3rS,6rR)-2-((E)-3-(4-oxo-2,3,4,5-tetrahydro-1H-pyrido[2,3-b][1,4]diazepin-8-yl)acryloyl)-1,2,3,3r,4,6r-hexahydrocyclopenta[c]pyrrol-5-yl)phenoxy)benzonitrile]	0.13	< 1	–	13	< 10	–	–	–	–	–
COc1cccc(Oc2cccc3c(CN(C)C(=O)/C=C/c4cnc5c(c4)NCCC(=O)N5)c(C)oc23)c1 [Compound 155, (E)-N-((7-(3-methoxyphenoxy)-2-methylbenzofuran-3-yl)methyl)-N-methyl-3-(4-oxo-2,3,4,5-tetrahydro-1H-pyrido[2,3-b][1,4]diazepin-8-yl)acrylamide]	0.32	< 1	–	28	< 10	–	–	–	–	< 1000
Cc1c(CN(C)C(=O)/C=C/c2cnc3c(c2)NC[C@H](O)C(=O)N3)oc2cccc(N)c12 [Compound 275, (E)-N-[(4-Amino-3-methyl-benzofuran-2-yl)methyl]-3-[(3S)-3-hydroxy-4-oxo-1,2,3,5-tetrahydropyrido[2,3-b][1,4]diazepin-8-yl]-N-methyl-prop-2-enamide]	–	< 1	–	51	< 10	–	–	–	–	< 5000

Continued, in another order:

Predict Human hep ER [1]	MIC50 (Neisseria gonorrhoeae; [6]) [µg/mL]	Papp A→B at 120 min [4] [×10⁻⁶ cm/s]	bioavailability [2] [%]	IC50 [3] [nM]	SMILES	MIC50 (Neisseria gonorrhoeae) [µg/mL]	Caco-2 Papp A2B (Caco-2)	Mouse F (%) [2] [%]	IC50 ([3]; read-out: ngFabI IC50, recombinant N. gonorrhoeae FabI, 30° C., pH 7.2) [nM]	IC50 [5] [nM]
0.28	< 1	3.4	18	< 10	Cc1c(CN(C)C(=O)/C=C/c2cnc3c(c2)NCC2(CC(O)C2)C(=O)N3)oc2ccccc12 (stereo not drawn) [Compound 115, (E)-3-(3-Hydroxy-4′-oxo-1′,2′,4′,5′-tetrahydrospiro[cyclobutane-1,3′-pyrido[2,3-b][1,4]diazepin]-8′-yl)-N-methyl-N-((3-methylbenzofuran-2-yl)methyl)acrylamide]	–	–	–	–	–
0.07	< 1	–	44	< 10	Cc1oc2c(Oc3ccc4c(c3)OCO4)cccc2c1CN(C)C(=O)/C=C/c1cnc2c(c1)NC[C@@](C)(O)C(=O)N2 [Compound 176, (R,E)-N-((7-(benzo[d][1,3]dioxol-5-yloxy)-2-methylbenzofuran-3-yl)methyl)-3-(3-hydroxy-3-methyl-4-oxo-2,3,4,5-tetrahydro-1H-pyrido[2,3-b][1,4]diazepin-8-yl)-N-methylacrylamide]	–	–	–	–	–
